The results in this text go back to patent US20260258003A1, “SLACK-ACTIVATING COMPOUNDS AND THEIR MEDICAL USE” (Johann Wolfgang Goethe-Universität Frankfurt am Main, priority 2023, published 2026).

A short description of data set [1]: BBB-specific parallel artificial membrane permeability assay (PAMPA-BBB). It is filed as in vitro ADME, porcine. As to conditions: pH 7.4, 37° C.; for MR (membrane retention factor): 4 h; for Papp at 4 h, 100 μM: pig, Pe in cm/s, read-out: BBB permeability log Pe (converted). On the procedure:
BBB permeability was estimated using a BBB-specific parallel artificial membrane permeability assay (PAMPA-BBB). […] Five v/v % DMSO in PBS (Phosphate Buffer Saline; 0.01 M, pH=7.4) buffer solutions of each compound were prepared with the final nominal concentration of 100 μM. These solutions were treated with ultrasonic waves and then centrifuged in case the test compounds were insoluble at this concentration. Proceeding with saturated, homogenous solutions (CD(0)) is sufficient because log Pe only depends on relative concentrations. A BBB specific PAMPA system was used to determine the log Pe and membrane retention (MR). Each well of the top plate (MultiScreen […]10; Millipore; Billerica, US) was carefully coated with 5 μL of porcine polar brain lipid extract (PBLE; Avanti Polar Lipids, Birmingham, US) solution, then 150 μL of the CD(0) solution was put on the membrane. The bottom plate (MultiScreen MDCPN2M50; Millipore, Billerica, US) was filled with […] PBS. PBLE solution consisted of 1 mg PBLE per 10 μL n-dodecane and 30 μL n-hexane. The donor plate was put on the acceptor plate and covered with a wet paper tissue and a plate lid. The sandwich system was incubated at 37° C. for 4 h. The plates were shaken and incubated in a Thermo ScientificTM MaxQTM 4000 Benchtop Orbital Shaker (Gel, Belgium). After the incubation, PAMPA sandwich plates were separated and compound concentrations in donor (CD(t)) and acceptor (CA(t)) solutions were determined by UPLC-MS (Waters, Milford, US). The concentration of the donor solution at zero time point (CD(0)) was determined using the supernatant after centrifugation.

For a further data set, the target named is T1, human Slack (Homo sapiens, UniProt Q5JUK3).
T1 construct: host or cells: HEK293
T1 sequence (Q5JUK3 1-1230): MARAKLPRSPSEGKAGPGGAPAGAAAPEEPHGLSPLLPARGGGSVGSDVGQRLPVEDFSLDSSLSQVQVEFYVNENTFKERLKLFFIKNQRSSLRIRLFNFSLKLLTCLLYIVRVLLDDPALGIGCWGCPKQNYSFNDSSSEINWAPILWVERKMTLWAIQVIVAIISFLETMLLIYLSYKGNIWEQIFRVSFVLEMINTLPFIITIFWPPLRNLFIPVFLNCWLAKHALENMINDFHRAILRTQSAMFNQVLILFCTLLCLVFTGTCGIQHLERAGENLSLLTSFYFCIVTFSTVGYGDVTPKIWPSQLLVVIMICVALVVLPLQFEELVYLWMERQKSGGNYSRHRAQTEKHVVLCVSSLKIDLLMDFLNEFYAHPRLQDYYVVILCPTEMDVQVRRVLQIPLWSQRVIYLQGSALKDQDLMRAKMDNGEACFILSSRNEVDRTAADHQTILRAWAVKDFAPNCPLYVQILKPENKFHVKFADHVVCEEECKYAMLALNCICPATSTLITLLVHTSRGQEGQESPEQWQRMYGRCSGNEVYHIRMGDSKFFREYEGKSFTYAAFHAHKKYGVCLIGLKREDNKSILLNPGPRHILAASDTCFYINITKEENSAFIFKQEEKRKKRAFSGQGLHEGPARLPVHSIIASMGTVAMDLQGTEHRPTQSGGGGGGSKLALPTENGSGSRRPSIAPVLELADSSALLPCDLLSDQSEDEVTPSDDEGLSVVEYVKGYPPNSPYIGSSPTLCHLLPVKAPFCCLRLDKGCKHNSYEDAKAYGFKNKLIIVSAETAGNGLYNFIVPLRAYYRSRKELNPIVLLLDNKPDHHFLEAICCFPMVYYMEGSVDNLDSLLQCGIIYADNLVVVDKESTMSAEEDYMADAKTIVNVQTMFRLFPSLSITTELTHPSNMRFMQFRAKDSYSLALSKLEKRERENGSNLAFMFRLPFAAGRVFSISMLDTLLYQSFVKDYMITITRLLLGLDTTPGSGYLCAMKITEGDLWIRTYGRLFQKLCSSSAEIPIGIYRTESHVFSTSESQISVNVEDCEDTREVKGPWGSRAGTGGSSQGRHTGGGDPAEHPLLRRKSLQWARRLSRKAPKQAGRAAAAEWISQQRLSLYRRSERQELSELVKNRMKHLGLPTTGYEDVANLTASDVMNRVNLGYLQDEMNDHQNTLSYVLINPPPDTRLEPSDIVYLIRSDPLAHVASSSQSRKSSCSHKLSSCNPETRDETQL
The data set is described as follows: FluxOR potassium ion channel assay in HEK-Slack cells. As to conditions: Na+ free buffer with 2 mM Ca2+, 2 mM Mg2+, 0.03% DMSO; for Emax: read-out: FluxOR assay EMAX (% relative to Loxapine). It is filed as cell-based. On the procedure:
For that purpose, cultured HEK293 cells stably expressing human Slack (herein referred to as HEK-Slack cells) were incubated with compounds in a Na^+ free buffer to prevent compound-independent Slack activation by monovalent cations^7,19.
In detail, in these experiments, the Slack-activating efficacy and potency of the novel compounds was determined using a commercial FluxOR™ Potassium Ion Channel Assay (Invitrogen). HEK293 cells stably expressing human Slack (herein referred to as HEK-Slack cells) were plated at a density of 50,000 cells per well of a poly-D-lysine coated (75 μg/mL, Sigma Aldrich) 96-well, black-walled microplate with clear bottom (Greiner Bio-One) in DMEM containing 10% FBS and 1% penicillin/streptomycin 24 hours prior to assaying.
On the experiment day, cells were loaded with FluxOR™ dye according to the manufacturer's protocol. A Na^+-free assay buffer containing 140 mM choline chloride, 5 mM KCl, 2 mM CaCl2), 2 mM MgSO4, 10 mM HEPES, 5.55 mM glucose, adjusted to pH 7.4 with KOH, was used. To reduce background fluorescence all assay components were complemented by 10% BackDrop™ Background Suppressor (Invitrogen). […]
After washing steps, cells were incubated with compounds for 30 min at 37° C. All compounds were prepared as a 33.3 mM DMSO stock and diluted at the experimental day to a final concentration of 100, 50, 25, 12.5, 6.25, and 3.125 μM in assay buffer containing […] DMSO. […] After stimulation with Tl2SO4 solution, the fluorescence was measured over 100 s (excitation 485 nm, emission 525 nm) using an Infinite M200 Microplate Reader (Tecan). Assays run in triplicate and the ratio to baseline fluorescence was calculated for all time points. Dose-response curves comprising six concentrations were performed in triplets using fluorescence/fluorescenceBaseline ratios at the 100th second.

Data set [2] addresses T2, serotonin 5-HT2B receptor (Homo sapiens, UniProt P41595).
T2 construct: Eurofins SafetyScreen44
The data set is described as follows: SafetyScreen44 binding. As to conditions: substantial = higher than 50%; for binding inhibition, 5-HT2B: 10 μM. On the procedure:
(§1) Compound enzyme inhibition effect was calculated as a % inhibition of control enzyme activity. […] Measurements were performed in duplicate.

The target in data set [3] is T3, serotonin 5-HT2A receptor (Homo sapiens, UniProt P28223).
T3 construct: Eurofins SafetyScreen44
T3 sequence (P28223 whole entry): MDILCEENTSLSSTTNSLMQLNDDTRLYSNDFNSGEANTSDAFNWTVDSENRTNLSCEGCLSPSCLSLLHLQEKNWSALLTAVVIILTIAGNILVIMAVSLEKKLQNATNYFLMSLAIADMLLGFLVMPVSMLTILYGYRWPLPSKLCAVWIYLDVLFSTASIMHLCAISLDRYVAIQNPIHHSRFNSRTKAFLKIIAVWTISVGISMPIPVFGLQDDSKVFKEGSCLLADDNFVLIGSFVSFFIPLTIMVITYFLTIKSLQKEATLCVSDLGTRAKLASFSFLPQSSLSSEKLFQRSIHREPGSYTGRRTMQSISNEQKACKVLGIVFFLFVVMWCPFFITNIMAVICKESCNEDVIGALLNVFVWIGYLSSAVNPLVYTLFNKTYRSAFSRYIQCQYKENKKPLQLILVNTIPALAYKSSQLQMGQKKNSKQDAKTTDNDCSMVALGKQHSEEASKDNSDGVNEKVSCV
The data set is described as follows: SafetyScreen44 binding. As to conditions: substantial = higher than 50%; for binding inhibition, 5-HT2A: 10 μM. On the procedure: as §1

Where [4] appears, read: mean with 95% confidence interval, read-out: FluxOR assay EC50.
[5] abbreviates: mean with 95% confidence interval.

Like-named read-outs stand apart in the source and are kept apart here.

T2 sequence (P41595 whole entry): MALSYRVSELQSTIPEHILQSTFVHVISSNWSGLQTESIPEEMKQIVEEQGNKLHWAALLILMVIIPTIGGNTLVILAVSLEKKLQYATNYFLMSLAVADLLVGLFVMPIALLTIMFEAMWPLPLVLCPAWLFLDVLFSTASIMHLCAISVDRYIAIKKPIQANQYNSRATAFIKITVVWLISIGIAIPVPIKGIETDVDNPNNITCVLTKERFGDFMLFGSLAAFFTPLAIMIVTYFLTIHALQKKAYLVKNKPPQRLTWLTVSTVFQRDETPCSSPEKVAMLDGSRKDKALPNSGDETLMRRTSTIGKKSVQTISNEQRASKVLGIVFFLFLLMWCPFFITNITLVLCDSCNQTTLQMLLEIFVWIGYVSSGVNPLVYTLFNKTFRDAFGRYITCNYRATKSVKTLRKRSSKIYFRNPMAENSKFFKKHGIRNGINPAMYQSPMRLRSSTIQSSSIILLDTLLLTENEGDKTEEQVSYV

What is called EC50 is the concentration that produces a half-maximal response. For orientation: Emax means the greatest response seen or fitted, relative to the assay's reference. Consider `CN1CCN(C2=Nc3cc(F)ccc3Oc3ccc(C(F)(F)F)cc32)CC1` [Compound 4, 8-Fluoro-11-(4-methylpiperazin-1-yl)-2-(trifluoromethyl)dibenzo[b,f][1,4]oxazepine], for which, in data set [1], the “MR (membrane retention factor)” value is given as 0.74 and the Papp at 4 h, 100 μM was 21.4 ×10⁻⁶ cm/s. For the same molecule, the EC50 on human Slack (setting [4]) was 41.5 µM. Also, the Emax on human Slack (setting [5]) was found to be 199%.

`O=C(O)COCCN1CCN(C2=Nc3ccccc3Oc3ccc(Cl)cc32)CC1` [Compound 6, 2-(2-(4-(2-Chlorodibenzo[b,f][1,4]oxazepin-11-yl)piperazin-1-yl)ethoxy) acetic acid]: the “binding inhibition, 5-HT2B” value in data set [2] was “substantial binding”. The “binding inhibition, 5-HT2A” value in data set [3] is “substantial binding”. In addition, in data set [1], the Papp at 4 h, 100 μM was 24.5 ×10⁻⁶ cm/s. The EC50 on human Slack (setting [4]) came to 30.3 µM. Moreover, the Emax at human Slack (setting [5]) turned out to be 96.2%.

On to `OCCOCCN1CCN(C2=Nc3ccccc3Sc3ccc(Cl)cc32)CC1` [Compound 7, 2-(2-(4-(2-Chlorodibenzo[b,f][1,4]thiazepin-11-yl)piperazin-1-yl)ethoxy) ethan-1-ol], for which, in data set [1], the “MR (membrane retention factor)” value worked out at 0.19 and the Papp at 4 h, 100 μM was 53.7 ×10⁻⁶ cm/s. Besides, the EC50 at human Slack (setting [4]) stood at 30 µM. At human Slack (setting [5]), the Emax was determined as 87.4%.

With `O=c1nc(CN2CCN(C3=Nc4ccccc4Oc4ccc(Cl)cc43)CC2)[nH][nH]1` [Compound 10, 5-((4-(2-Chlorodibenzo[b,f][1,4]oxazepin-11-yl)piperazin-1-yl)methyl)-1,2-dihydro-3H-1,2,4-triazol-3-one], the “binding inhibition, 5-HT2B” value in data set [2] is reported as “substantial binding inhibition”. In addition, the “binding inhibition, 5-HT2A” value in data set [3] was “substantial binding inhibition”. The “MR (membrane retention factor)” value in data set [1] was 0.02. Further, the EC50 at human Slack (setting [4]) was 22.1 µM. The Emax on human Slack (setting [5]) was 120%.

Turning to `CN1CCN(C2=Nc3ccccc3Oc3ccc(C(F)(F)F)cc32)CC1` [Compound 2, 11-(4-Methylpiperazin-1-yl)-2-(trifluoromethyl)dibenzo[b,f][1,4]oxazepine], in data set [1], the “MR (membrane retention factor)” value stood at 0.64 and the Papp at 4 h, 100 μM was 26.3 ×10⁻⁶ cm/s. The EC50 at human Slack (setting [4]) was determined as 6.3 µM. Further, the maximal effect (Emax) at human Slack (setting [5]) came to 114%.

With `CN1CCCN(C2=Nc3ccccc3Oc3ccc(C(F)(F)F)cc32)CC1` [Compound 3, 11-(4-Methyl-1,4-diazepan-1-yl)-2-(trifluoromethyl)dibenzo[b,f][1,4]oxazepine], in data set [1], the “MR (membrane retention factor)” value came out at 0.5 and the Papp at 4 h, 100 μM is 38 ×10⁻⁶ cm/s. For the same molecule, on human Slack (setting [4]), the EC50 is 3.2 µM. The Emax at human Slack (setting [5]) was 63.1%.

`O=C(O)COCCN1CCN(C2=Nc3ccccc3Oc3ccc(C(F)(F)F)cc32)CC1` [Compound 8, 2-(2-(4-(2-(Trifluoromethyl)dibenzo[b,f][1,4]oxazepin-11-yl)piperazin-1-yl)ethoxy) acetic acid]: the Papp at 4 h, 100 μM in data set [1] was 26.3 ×10⁻⁶ cm/s. Also, on human Slack (setting [4]), the concentration giving a half-maximal response (EC50) amounted to 62.5 µM. In addition, at human Slack (setting [5]), the maximum response (Emax) was determined as 177%.

On to `O=C(O)COCCN1CCCN(C2=Nc3ccccc3Oc3ccc(C(F)(F)F)cc32)CC1` [Compound 9, 2-(2-(4-(2-(Trifluoromethyl)dibenzo[b,f][1,4]oxazepin-11-yl)-1,4-diazepan-1-yl)ethoxy) acetic acid], for which, in data set [1], the “MR (membrane retention factor)” value was −0.10 and the Papp at 4 h, 100 μM is 35.5 ×10⁻⁶ cm/s. Further, at human Slack (setting [4]), the EC50 came to 50.9 µM. The Emax at human Slack (setting [5]) was found to be 186%.

Usually inhibition stands for the relative decrease from the control value, in per cent. As to `CN1CCN(C2=Nc3ccccc3Oc3ccc(Cl)cc32)CC1` [Loxapine, 2-chloro-11-(4-methylpiperazin-1-yl)dibenzo[b,f][1,4]oxazepine, reference compound], the inhibition at 10 µM in data set [2] and in data set [3] was over 50% in each case. For the same molecule, in data set [1], the “MR (membrane retention factor)” value came to 0.33. Also, the EC50 on human Slack (first preliminary experiments, read-out: EC50 value in the first preliminary experiments) was determined as 23.4 µM; at human Slack (setting [4]) it was 20.7 µM. Moreover, the Emax at human Slack (setting [5]) came out at 100%.

Consider `OCCN1CCN(C2=Nc3ccccc3Oc3ccc(Cl)cc32)CC1` [Compound 5, 2-(4-(2-Chlorodibenzo[b,f][1,4]oxazepin-11-yl)piperazin-1-yl) ethan-1-ol], for which, in data set [1], the “MR (membrane retention factor)” value amounted to 0.03 and the Papp at 4 h, 100 μM was 39.8 ×10⁻⁶ cm/s. The EC50 at human Slack (setting [4]) was 26 µM. The maximum response (Emax) at human Slack (setting [5]) worked out at 223%.
